Measured values: patent US20240082272A1, “COMPOSITIONS AND METHODS FOR TREATING WNT-DRIVEN CANCER” (The Regents of the University of Michigan, priority 2020, published 2024)

Key:
NCI-H295R, ATC7L, and Y1 = experiment: Viability of ACC cell lines with CBPi alone or combined with EZH2i; format: cell-based; details: increasing doses of CBPi combined with EZH2i at the IC-50 dose for each cell line; all ACC cell lines
Experimental: FIG. 20. EZH2i and CBPi are synergistic in ACC cell lines. NCI-H295R, ATC7L, and Y1 were treated with increasing doses of CBPi (PRI-724), alone or in combination with EZH2i at the IC-50 dose for each cell line (EZH2i viability curves for ATC7L and Y1 not shown).
ACC cell lines were treated with a specific and irreversible inhibitor of the H3K27 acetyltransferase CBP (PRI-724 (Kahn, 2014)). CBP regulates H3K27ac deposition genome-wide including at enhancers, and CBP-dependent H3K27ac deposition is required for enhancer activity (Merika et al., 1998; Raisner et al., 2018). Cell lines received the CBP inhibitor (CBPi) either alone or combination with EZH2i at the determined IC-50 dose for that cell line.

HSD3B2 = HSD3B2 expression by qPCR in NCI-H295R; format: cell-based; details: doses under the IC-50
Source text: FIG. 7. EZH2i reverses zF differentiation. […] Representative experiment shown, n>3. C.
(§1) FIG. 21. EZH2i and CBPi redundantly disrupt the NCI-H295R transcriptome. […] Right, gene expression changes induced by EZH2i and CBPi are strongly correlated. […] C.

NCI-H295R = experiment: RNA-seq transcriptome of NCI-H295R after drug treatment; format: cell-based; details: for differentially expressed genes overlapping between EZH2i and CBPi: 96-hour IC-50 administration
Experimental: FIG. 6. Forskolin induces faithful zF differentiation and steroidogenesis in NCI-H295R. […] The induction of immediate early response programs is consistent with known mechanisms of action of PKA.
as §1
To evaluate if EZH2i disrupted zF differentiation, the NCI-H295R was treated with the zF differentiation agent forskolin and the transcriptome was profiled by RNA-seq. Despite that CIMP-high as a class is at the zF differentiation maximum across human ACC (FIG. 5), the presence of mutant CTNNB1 in this cell line and high levels of nuclear β-catenin are likely to enable faithful responsiveness to forskolin and refractory response to Wnt/β-catenin stimulants, analogously to the Y1 cell line.
The NCI-H295R response to CBPi was evaluated by RNA-seq and compared to the NCI-H295R response to EZH2i. […] Similarly to EZH2i, CBPi induces downregulation of all core modules that define CIMP-high ACC (FIG. 22). Taken together, the results point to adrenocortical differentiation as a targetable therapeutic vulnerability selected for in CIMP-high ACC.

[1] = test system: subcutaneous, immunodeficient xenograft model of adrenal cancer; experiment: Subcutaneous xenograft model of adrenal cancer; format: in vivo, mouse; details: 200 mg/kg PO daily, compared to vehicle
Experimental: To test if disruption of SF1/β-catenin complexes in vivo can cause dedifferentiation (Example 1 and 2) and disrupt tumor growth, the impact of EZH2 inhibition on a xenograft model derived from the Borges et al. Oncogene 2020 genetically engineered mouse model detailed in FIG. 25 was assayed.

Compound	loss of viability in combination (NCI-H295R, ATC7L, and Y1)	HSD3B2 expression (HSD3B2)	steroidogenesis (RNA-seq) (NCI-H295R)	differentially expressed genes overlapping between EZH2i and CBPi (NCI-H295R)	tumor growth [1]	expression of SF1 ([1]; immunohistochemistry)
C[C@H]1[C@H]2N(C(=O)CN(C)N2C(=O)NCc2ccccc2)[C@@H](Cc2ccc(OP(=O)(O)O)cc2)C(=O)N1Cc1cccc2cccnc12 [PRI-724]	synergistic	dose-dependent downregulation	potent downregulation of steroidogenesis	~70%		
CCN(c1cc(-c2ccc(CN3CCOCC3)cc2)cc(C(=O)NCc2c(C)cc(C)[nH]c2=O)c1C)C1CCOCC1 [EPZ-6438]				~70%	decreases tumor growth	decreasing expression of SF1
